The values below come from ChEMBL document CHEMBL4038270, “Synthesis of heterocyclic ring-fused tricyclic diterpene analogs as novel inhibitors of RANKL-induced osteoclastogenesis and bone resorption” (Eur J Med Chem, 2017).

A short description of assay [1]: Inhibition of RANKL-induced C57BL/6 mouse bone marrow monocytes differentiation into osteoclasts at 0.5 uM after 6 days in presence of M-CSF by tartrate-resistant acid phosphatase staining based assay relative to control. The conditions noted are these: C57BL/6, Bone marrow monocyte, 144 h. Type of assay: functional.
Assay [2] can be described thus: Inhibition of RANKL-induced C57BL/6 mouse bone marrow monocytes differentiation into osteoclasts at 0.1 uM after 6 days in presence of M-CSF by tartrate-resistant acid phosphatase staining based assay relative to control. As to conditions: C57BL/6, Bone marrow monocyte, 144 h. The assay is classed as functional.
Assay [3] in a line: Inhibition of RANKL-induced C57BL/6 mouse bone marrow monocytes differentiation into osteoclasts at 2 uM after 6 days in presence of M-CSF by tartrate-resistant acid phosphatase staining based assay relative to control. Type of assay: functional. As to conditions: C57BL/6, Bone marrow monocyte, 144 h.
The nature of assay [4]: Inhibition of RANKL-induced C57BL/6 mouse bone marrow monocytes differentiation into osteoclasts after 6 days in presence of M-CSF by tartrate-resistant acid phosphatase staining based assay. The assay is classed as functional, cell-based. The conditions noted are these: C57BL/6, Bone marrow monocyte, 144 h.
The nature of assay [5]: Inhibition of RANKL-induced C57BL/6 mouse bone marrow monocytes differentiation into osteoclasts at 10 uM after 6 days in presence of M-CSF by tartrate-resistant acid phosphatase staining based assay relative to control. Type of assay: functional. The conditions noted are these: C57BL/6, Bone marrow monocyte, 144 h.
Assay [6] is described as follows: Inhibition of RANKL-induced C57BL/6 mouse bone marrow macrophage differentiation into osteoclasts in presence of M-CSF by tartrate-resistant acid phosphatase staining based assay. The assay is classed as functional, cell-based. As to conditions: C57BL/6, BMDM.
Assay [7] in a line: Potency index, ratio of maslinic acid IC50 to compound IC50 for RANKL-induced C57BL/6 mouse bone marrow monocytes differentiation into osteoclasts. Type of assay: functional, Bone marrow monocyte.

pIC50: −log10 of the molar value.

A word on the inhibition: it is the drop in the measured response relative to a control, in per cent. Broadly, the pIC50 is the IC50 on a negative log10 scale, so that one unit is a factor of ten.

Consider `COc1cc2c(cc1N)CC[C@H]1C(C)(C)c3oc(C)nc3C[C@]21C`, for which the inhibition at 0.5 µM in assay [1] worked out at 54.8%. Further, the inhibition at 0.1 µM in assay [2] came out at 27.1%. In addition, in assay [3], the inhibition at 2 µM amounted to 77.7%.
Turning to `COc1ccc2c(c1)[C@@]1(C)Cc3cnoc3C(C)(C)[C@@H]1CC2`, the inhibition at 0.5 µM in assay [1] turned out to be 1.5%. Besides, the inhibition at 2 µM in assay [3] was 15.9%. For the same molecule, in assay [4], the pIC50 is 5.12. Further, in assay [5], the inhibition at 10 µM was found to be 59.1%.
Turning to `CCOC(=O)c1[nH]nc2c1C[C@]1(C)c3cc(OC)ccc3CC[C@H]1C2(C)C`, the inhibition at 0.5 µM in assay [1] was 61.6%. Also, in assay [3], the inhibition at 2 µM was found to be 71.7%. In addition, the inhibition at 10 µM in assay [5] was determined as 93.7%.
`COc1cc2c(cc1C(N)=O)CC[C@H]1C(C)(C)c3oc(C)nc3C[C@]21C`: in assay [1], the inhibition at 0.5 µM was determined as 30.9%. The inhibition at 0.1 µM in assay [2] was 10.2%. Also, in assay [3], the inhibition at 2 µM came out at 57%.
On to `CCNC(=O)c1noc2c1C[C@]1(C)c3cc(OC)ccc3CC[C@H]1C2(C)C`, for which, in assay [1], the inhibition at 0.5 µM was 33.6%. In assay [3], the inhibition at 2 µM came to 42.4%. The inhibition at 10 µM in assay [5] is 84.3%.
Taken in the same sequence, the figures for `COc1ccc2c(c1)[C@@]1(C)Cc3nc(N)sc3C(C)(C)[C@@H]1CC2` were 29.8%, 35.8% and 98.2%.
In the case of `COc1cc2c(cc1C(C)=O)CC[C@H]1C(C)(C)c3oc(C)nc3C[C@]21C`, the inhibition at 0.5 µM in assay [1] was determined as 64.5%. The inhibition at 0.1 µM in assay [2] is 30.6%. Also, the inhibition at 2 µM in assay [3] is 100%.
As for `CC1(C)[C@H](O)CC[C@]2(C)[C@@H]1CC[C@]13CC4C[C@](O)(C1)[C@@H]4C[C@H]32`, in assay [6], the pIC50 is 4.70.
Regarding `CCCCNC(=O)c1cc2c(cc1OC)[C@@]1(C)Cc3nc(C)oc3C(C)(C)[C@@H]1CC2`, in assay [1], the inhibition at 0.5 µM amounted to 37.8%. Besides, the inhibition at 0.1 µM in assay [2] came to 34.5%. In assay [3], the inhibition at 2 µM came out at 88.6%.
Consider `CC1(C)CC[C@]2(C(=O)O)CC[C@]3(C)C(=CC[C@@H]4[C@@]5(C)C[C@@H](O)[C@H](O)C(C)(C)[C@@H]5CC[C@]43C)[C@@H]2C1` [MASLINIC ACID], for which the inhibition at 0.5 µM in assay [1] was determined as 48.6%. Also, the inhibition at 2 µM in assay [3] was determined as 59.7%. Also, the pIC50 in assay [4] was 6.20. In assay [5], the inhibition at 10 µM came out at 76.3%.
As for `CCNC(=O)c1cc2c(cc1OC)[C@@]1(C)Cc3nc(C)oc3C(C)(C)[C@@H]1CC2`, the inhibition at 0.5 µM in assay [1] worked out at 70%. Moreover, the inhibition at 0.1 µM in assay [2] was determined as 56.1%. In assay [3], the inhibition at 2 µM turned out to be 98.2%.
As to `COc1ccc2c(c1)[C@@]1(C)Cc3c[nH]nc3C(C)(C)[C@@H]1CC2`, the inhibition at 0.5 µM in assay [1] is 4.3%. Also, the inhibition at 2 µM in assay [3] came out at 8.1%. Moreover, the inhibition at 10 µM in assay [5] was found to be 10.1%.
Consider `COc1ccc2c(c1)[C@@]1(C)Cc3snnc3C(C)(C)[C@@H]1CC2`, for which, in assay [1], the inhibition at 0.5 µM was 66.7%. In assay [3], the inhibition at 2 µM is 76.8%. For the same molecule, the inhibition at 10 µM in assay [5] stood at 97.2%.
In the case of `CC1(C)C(=O)CC[C@]2(C)[C@@H]1CC[C@@]13C[C@@H]4[C@@H](C[C@H]12)[C@]4(C(=O)O)C3`, in assay [6], the pIC50 was 5.40.
Take `COc1ccc2c(c1)[C@@]1(C)Cc3cncnc3C(C)(C)[C@@H]1CC2`: the inhibition at 0.5 µM in assay [1] was 51.1%. For the same molecule, in assay [3], the inhibition at 2 µM is 83%. Besides, the inhibition at 10 µM in assay [5] worked out at 99.5%.
Taken in the same sequence, the figures for `COc1ccc2c(c1)[C@@]1(C)Cc3c(CO)noc3C(C)(C)[C@@H]1CC2` were 43.4%, 51.7% and 91.4%.
For the molecule `CCCC(=O)c1cc2c(cc1OC)[C@@]1(C)Cc3nc(C)oc3C(C)(C)[C@@H]1CC2`, the inhibition at 0.5 µM in assay [1] stood at 55.6%. Moreover, in assay [2], the inhibition at 0.1 µM was 30%. Also, the inhibition at 2 µM in assay [3] is 83.6%.
On to `CCOC(=O)c1noc2c1C[C@]1(C)c3cc(OC)ccc3CC[C@H]1C2(C)C`, for which the inhibition at 0.5 µM in assay [1] was 49.5%. For the same molecule, the inhibition at 2 µM in assay [3] came out at 88.6%. Further, in assay [5], the inhibition at 10 µM is 100%.
The like results for `COc1ccc2c(c1)[C@@]1(C)Cc3c(C(=O)O)noc3C(C)(C)[C@@H]1CC2` were, in that order, 55.1%, 66.8% and 77.9%.
The like results for `COC(=O)c1noc2c1C[C@]1(C)c3cc(OC)ccc3CC[C@H]1C2(C)C` were, in that order, 34.8%, 43.7% and 100%.
On to `CNC(=O)c1noc2c1C[C@]1(C)c3cc(OC)ccc3CC[C@H]1C2(C)C`, for which the inhibition at 0.5 µM in assay [1] stood at 28.6%. Also, in assay [3], the inhibition at 2 µM was found to be 52.8%. In addition, in assay [5], the inhibition at 10 µM was determined as 100%.
For `COc1cc2c(cc1NC(C)=O)CC[C@H]1C(C)(C)c3oc(C)nc3C[C@]21C`, in assay [1], the inhibition at 0.5 µM was 44.1%. Moreover, the inhibition at 0.1 µM in assay [2] came to 26.9%. In addition, in assay [3], the inhibition at 2 µM was determined as 66.1%.
`COc1ccc2c(c1)[C@@]1(C)Cc3cnc(C)nc3C(C)(C)[C@@H]1CC2`: the inhibition at 0.5 µM in assay [1] came to 45.2%. For the same molecule, in assay [3], the inhibition at 2 µM came out at 76%. Moreover, in assay [5], the inhibition at 10 µM was found to be 98.5%.
On to `COc1cc2c(cc1C(=O)O)CC[C@H]1C(C)(C)c3oc(C)nc3C[C@]21C`, for which the inhibition at 0.5 µM in assay [1] came out at 45.2%. The inhibition at 0.1 µM in assay [2] came out at 22.6%. In assay [3], the inhibition at 2 µM amounted to 67.8%.
Consider `CCC(=O)c1cc2c(cc1OC)[C@@]1(C)Cc3nc(C)oc3C(C)(C)[C@@H]1CC2`, for which the inhibition at 0.5 µM in assay [1] was found to be 64.1%. In assay [2], the inhibition at 0.1 µM was determined as 32.5%. The inhibition at 2 µM in assay [3] was determined as 91.3%.
For `COc1ccc2c(c1)[C@@]1(C)Cc3nccnc3C(C)(C)[C@@H]1CC2`, in assay [1], the inhibition at 0.5 µM came to 34.3%. In assay [3], the inhibition at 2 µM amounted to 66.9%. Also, in assay [5], the inhibition at 10 µM is 98.2%.
On to `COc1ccc2c(c1)[C@@]1(C)Cc3nc(C)oc3C(C)(C)[C@@H]1CC2`, for which, in assay [1], the inhibition at 0.5 µM is 75%. The “Ratio IC50” value in assay [7] is recorded as 2. In addition, the inhibition at 0.1 µM in assay [2] was determined as 42.9%. In addition, the inhibition at 2 µM in assay [3] stood at 99.2%. In addition, the pIC50 in assay [4] is 6.48. In addition, the inhibition at 10 µM in assay [5] was 100%.
Turning to `COc1cc2c(cc1C(=O)N(C)C)CC[C@H]1C(C)(C)c3oc(C)nc3C[C@]21C`, in assay [1], the inhibition at 0.5 µM is 70.1%. Further, the inhibition at 0.1 µM in assay [2] worked out at 53.1%. Moreover, the inhibition at 2 µM in assay [3] stood at 89.2%.
Take `CNC(=O)c1cc2c(cc1O)[C@@]1(C)Cc3nc(C)oc3C(C)(C)[C@@H]1CC2`: the inhibition at 0.5 µM in assay [1] was 87.6%. For the same molecule, in assay [2], the inhibition at 0.1 µM was determined as 64.1%. The inhibition at 2 µM in assay [3] turned out to be 96.6%.
Turning to `COc1ccc2c(c1)[C@@]1(C)Cc3cnc(N)nc3C(C)(C)[C@@H]1CC2`, in assay [1], the inhibition at 0.5 µM amounted to 38.6%. The inhibition at 2 µM in assay [3] was determined as 64.6%. The inhibition at 10 µM in assay [5] came out at 96.2%.
Taken in the same sequence, the figures for `CCCOC(=O)c1noc2c1C[C@]1(C)c3cc(OC)ccc3CC[C@H]1C2(C)C` were 34.8%, 41.4% and 100%.
Take `COc1ccc2c(c1)[C@@]1(C)Cc3c([nH]c4ccccc34)C(C)(C)[C@@H]1CC2`: in assay [1], the inhibition at 0.5 µM came out at 57.6%. The inhibition at 2 µM in assay [3] is 74.3%. The inhibition at 10 µM in assay [5] was 88.9%.
As for `CC1(C)[C@H](O)C(=O)C[C@]2(C)[C@@H]1CC[C@]13CC4C[C@](O)(C1)[C@@H]4C[C@H]32`, in assay [6], the pIC50 is 4.82.
`COc1ccc2c(c1)[C@@]1(C)Cc3c(n[nH]c3C(=O)O)C(C)(C)[C@@H]1CC2`: in assay [1], the inhibition at 0.5 µM came out at 43.9%. Further, the inhibition at 2 µM in assay [3] worked out at 57.2%. Further, the inhibition at 10 µM in assay [5] stood at 56.1%.
Consider `COc1cc2c(cc1/C(C)=N/O)CC[C@H]1C(C)(C)c3oc(C)nc3C[C@]21C`, for which the inhibition at 0.5 µM in assay [1] was 42.7%. The inhibition at 0.1 µM in assay [2] came out at 26.9%. Moreover, the inhibition at 2 µM in assay [3] was 70%.
For `CCCNC(=O)c1cc2c(cc1OC)[C@@]1(C)Cc3nc(C)oc3C(C)(C)[C@@H]1CC2`, in assay [1], the inhibition at 0.5 µM came out at 62.8%. Moreover, the inhibition at 0.1 µM in assay [2] is 38.1%. Moreover, in assay [3], the inhibition at 2 µM was 100%.
